Where “and” joins values, the source holds several entries; their conditions need not be identical. Identical values can stand only once.
What was measured:
[1] = system: AMPK; assay: Phospho-AMPK immunoblot in primary hepatocytes; format: cell-based, mouse; settings: for relative p-AMPK protein, mean: N=3 (0 μM = 1); for relative p-AMPK protein: Supp. fig.3e, individual replicates
Protocol: (§1) Immunoblotting and immunoprecipitation assays were performed as previously described, with antibodies recognizing CREB, Ser133-P-CREB, AMPK, P-AMPK, AKT, P-AKT (Cell Signaling), PGC-1α (Merck), CRTC2 (Calbiochem), PCK1 (Santa Cruz), SREBP1 (Santa Cruz), SREBP2 (BD), HA (Convance), LXRα (Santa Cruz), FLAG (Sigma), GST (Covance), HIS (Abmart), GAPDH (AOGMA), α-TUBULIN (Abmart), β-ACTIN (Abmart), and other antibodies (Supplementary Table 3). For immunostaining assays, primary cultured hepatocytes seeded on coverslips were fixed with 4% paraformaldehyde for 20 min, permeabilized with 0.3% Triton X-100 in PBS, and then blocked by 5% normal goat serum and 0.3% Triton X-100 in PBS, followed by incubation with anti-CREB (1:1000), anti-P-CREB (1:1000), or anti-HA (1:3000) antibodies for 1 h at 4 °C. Slides were then washed, and after washing, slides were incubated with fluorochrome-conjugated secondary antibodies (Invitrogen). Slides were then washed and mounted with Vectashield mounting media containing 4, 6-diamidino-2-phenylindole (DAPI).
1 Supplementary Figure 3. APC inhibits gluconeogenesis independent of CREB-phosphorylation,
2 cell toxin or AMPK activation. […]
20 e) Phosphate-AMPK level in primary hepatocytes incubated with APC or metformin (MET) at
21 indicated concentrations (0–200 μM) for 30 minutes (top). Relative P-AMPK normalized by AMPK is […]

[2] = Cholesterol, TG, NEFA and glycerol in serum and liver; format: in vivo, mouse; set-up: liver NEFA, Mean 2 (group mean) / Plasma VLDL cholesterol in db/db mice (VLDL-C) / Plasma VLDL cholesterol in db/db mice, group mean / TC in liver_CT2KO (total cholesterol in the liver of CRTC2-KO) / TC in liver_WT (total cholesterol in the liver) / TC in liver_WT, mean / TC in liver_WT, Mean Diff. VEH vs. drug / TC in liver_CRTC2KO, mean / TC in liver_CRTC2KO, Mean Diff. VEH vs. drug: unit not given here; settings: for Plasma total cholesterol, Mean 1 (drug group): N 6
Protocol: Serum total cholesterol (TC), LDL cholesterol (LDL-C), and HDL cholesterol (HDL-C) levels were detected using commercial kits (Beihua, China), and serum VLDL protein was determined by ELISA (Jiancheng, China).
The plasma TG and NEFA levels were determined using corresponding kits from Beihua (China) and WAKO (Japan), respectively. The TG levels of liver and WAT were tested by TG kit (Applygene, China). The NEFA in the liver and WAT were extracted by chloroform–methanol and then subjected to NEFA assay (WAKO).

[3] = system: tissue protein levels; assay: Immunoblotting of tissue proteins in treated mice; format: in vivo, mouse; settings: for Relative LXRa/ACTIN, Mean Diff. (VEH vs. treated) / Relative LXRa/ACTIN, Mean 2 (group mean) / Relative LXRa/ACTIN: Figure 7h; for Relative LXRa/ACTIN, Mean 2 (group mean): N2 = 4; for Relative LXRa/ACTIN: single replicates
Protocol: as §1

[4] = biological target: T1, CREB-CRTC2 interaction (Homo sapiens, UniProt P16220); assay: CREB–CRTC2 mammalian two-hybrid assay (GAL4-Luc reporter); format: cell-based
T1 construct: expressed in transfected cells; host or cells: HEK293T

[5] = biological target: T2, HIS-CREB protein (Homo sapiens, UniProt P16220); assay: Isothermal titration calorimetry; format: binding
T2 construct: made in house
Protocol: Isothermal titration calorimetry was performed using a MicroCal iTC200 calorimeter (Freiburg, Germany). The purified HIS-CREB protein and APC were diluted in buffer (PBS with 500 mM NaCl and 10% glycine, pH 8.0). APC solution was titrated by injection of HIS-CREB. The originally released heat from molecules binding was recorded and analyzed by Origin9 software (Origin Lab) supplied with the instrument.

[6] = 200 μM (first of two lines printed 200)
[7] = 200 μM (second of two lines printed 200)
[8] = liver, CRTC2KO mice, drug minus VEH
[9] = liver, CRTC2KO mice, group mean, N=4
[10] = liver, WT mice, group mean, N=4

T1 sequence (P16220 whole entry, the tested form may be a part): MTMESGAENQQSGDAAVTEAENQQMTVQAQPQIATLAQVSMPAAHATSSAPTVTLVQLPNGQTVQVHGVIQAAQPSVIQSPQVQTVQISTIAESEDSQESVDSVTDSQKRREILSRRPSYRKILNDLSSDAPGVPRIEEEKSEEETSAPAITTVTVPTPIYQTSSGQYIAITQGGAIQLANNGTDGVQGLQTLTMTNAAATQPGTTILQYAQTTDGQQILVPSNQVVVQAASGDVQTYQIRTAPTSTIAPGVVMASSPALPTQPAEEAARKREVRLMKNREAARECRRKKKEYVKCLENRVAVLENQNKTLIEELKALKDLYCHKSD
T2 sequence (P16220 whole entry): as the sequence (P16220 whole entry, the tested form may be a part) above

CN(C)C(=N)NC(=N)N [MET]
relative p-AMPK protein, mean ([1]; 5 μM): 1.096 | relative p-AMPK protein, mean ([1]; 10 μM): 1.224 | relative p-AMPK protein, mean ([1]; 100 μM): 1.394 | relative p-AMPK protein, mean [1, 6]: 1.978 | relative p-AMPK protein, mean [1, 7]: 2.005 | relative p-AMPK protein ([1]; 5 μM): 1.169 (2×) and 0.9483 | relative p-AMPK protein ([1]; 10 μM): 1.256 and 1.249 and 1.166 | relative p-AMPK protein ([1]; 100 μM): 1.432 and 1.326 and 1.423 | relative p-AMPK protein [1, 6]: 2.049 and 1.941 and 1.943 | relative p-AMPK protein [1, 7]: 1.966 and 1.951 and 2.098 | relative p-AMPK protein, column mean ([1]; mean over all concentrations, 0 μM included): 1.449 | Plasma total cholesterol, Mean Diff. vs. VEH ([2]; Figure 6h, CRTC2KO mice): 28.04 mg/dL | Plasma total cholesterol, Mean 1 (drug group) ([2]; Figure 6h, CRTC2KO mice, group mean): 246.8 mg/dL | TC in plasma_CRTC2KO (plasma total cholesterol) ([2]; Figure 6h, CRTC2KO mice, individual mice): 232.014 mg/dL and 251.349 mg/dL and 216.160 mg/dL and 260.242 mg/dL and 252.895 mg/dL and 268.363 mg/dL | Plasma total cholesterol, Mean Diff. vs. VEH ([2]; Figure 6h, WT mice): -63.12 mg/dL | Plasma total cholesterol, Mean 1 (drug group) ([2]; Figure 6h, WT mice, group mean): 215.4 mg/dL | TC in plasma_WT (plasma total cholesterol) ([2]; Figure 6h, WT mice, individual mice): 184.451 mg/dL and 247.868 mg/dL and 232.401 mg/dL and 156.610 mg/dL and 233.948 mg/dL and 237.041 mg/dL | TC in liver_CRTC2KO, Mean Diff. VEH vs. drug ([2]; liver, CRTC2-KO mice, VEH minus drug): -4.203 | TG in liver_CT2KO, Mean Diff. vs. VEH ([2]; liver, CRTC2-KO mice, drug minus VEH): 5.139 mg/g protein | TC in liver_CRTC2KO, mean ([2]; liver, CRTC2-KO mice, group mean (Mean 2), N=6): 55.56 | TG in liver_CT2KO, mean ([2]; liver, CRTC2-KO mice, group mean, N=6): 20.79 mg/g protein | TG in liver_CT2KO ([2]; liver, CRTC2-KO mice, individual animals, Supp.fig.5c): 21.7349 mg/g protein and 16.8626 mg/g protein and 22.9286 mg/g protein and 13.5919 mg/g protein and 26.3275 mg/g protein and 23.2939 mg/g protein | TC in liver_WT, Mean Diff. VEH vs. drug ([2]; liver, WT mice, VEH minus drug): 4.549 | TG in liver_WT, Mean Diff. vs. VEH ([2]; liver, WT mice, drug minus VEH): -8.336 mg/g protein | TC in liver_WT, mean ([2]; liver, WT mice, group mean (Mean 2), N=6): 55.81 | TG in liver_WT, mean ([2]; liver, WT mice, group mean, N=6): 11.62 mg/g protein | TG in liver_WT ([2]; liver, WT mice, individual animals, Supp.fig.5c): 22.699 mg/g protein and 6.6923 mg/g protein and 14.0154 mg/g protein and 7.7587 mg/g protein and 8.152 mg/g protein and 10.4144 mg/g protein | Relative LXRa/ACTIN, Mean Diff. (VEH vs. treated) ([3]; CRTC2KO): 0.07206 | Relative LXRa/ACTIN, Mean 2 (group mean) ([3]; CRTC2KO): 0.7321 | Relative LXRa/ACTIN ([3]; CT2KO): 0.7043 and 0.6782 and 0.684 and 0.8619 | Relative LXRa/ACTIN, Mean Diff. (VEH vs. treated) ([3]; WT): 0.1998 | Relative LXRa/ACTIN, Mean 2 (group mean) ([3]; WT): 0.6958 | Relative LXRa/ACTIN ([3]; WT): 0.7209 and 0.7206 and 0.6711 and 0.6705 | SREBP1/ACT IN CT2KO, Mean Diff. vs. VEH [3, 8]: -0.1882 | SREBP2/ACT IN CT2KO, Mean Diff. vs. VEH [3, 8]: -0.07501 | SREBP1/ACT IN CT2KO, mean [3, 9]: 0.4991 | SREBP2/ACT IN CT2KO, mean [3, 9]: 0.6794 | SREBP1/ACT IN CT2KO (related SREBP1 protein levels in CRTC2KO liver) ([3]; liver, CRTC2KO mice, individual replicates, Supp.fig.5a left): 0.5276 and 0.4764 and 0.5154 and 0.4771 | SREBP2/ACT IN CT2KO (related SREBP2 protein levels in CRTC2KO liver) ([3]; liver, CRTC2KO mice, individual replicates, Supp.fig.5a right): 0.7097 and 0.717 and 0.6322 and 0.6586 | SREBP1/ACT IN WT, Mean Diff. vs. VEH ([3]; liver, WT mice, drug minus VEH): -0.1949 | SREBP2/ACT IN WT, Mean Diff. vs. VEH ([3]; liver, WT mice, drug minus VEH): -0.2245 | SREBP1/ACT IN WT, mean [3, 10]: 0.7683 | SREBP2/ACT IN WT, mean [3, 10]: 0.8001 | SREBP1/ACT IN WT (related SREBP1 protein levels in liver) ([3]; liver, WT mice, individual replicates, Supp.fig.5a left): 0.8628 and 0.72 and 0.7576 and 0.7329 | SREBP2/ACT IN WT (related SREBP2 protein levels in liver) ([3]; liver, WT mice, individual replicates, Supp.fig.5a right): 0.85 and 0.793 and 0.7497 and 0.8079

CCOC(=O)/C=C/c1ccc(O)cc1 [P4, (E)-p-hydroxycinnamic acid ethyl ester]
reporter activity of CREB–CRTC2 two-hybrid assay [4]: nor decreased CREB/CRTC2 interaction | direct binding with HIS-CREB proteins (ITC) [5]: neither directly bound with HIS-CREB proteins
